# Molecular target: T1, TAFIa (Homo sapiens, UniProt Q96IY4)
# T1 sequence (Q96IY4 115-423): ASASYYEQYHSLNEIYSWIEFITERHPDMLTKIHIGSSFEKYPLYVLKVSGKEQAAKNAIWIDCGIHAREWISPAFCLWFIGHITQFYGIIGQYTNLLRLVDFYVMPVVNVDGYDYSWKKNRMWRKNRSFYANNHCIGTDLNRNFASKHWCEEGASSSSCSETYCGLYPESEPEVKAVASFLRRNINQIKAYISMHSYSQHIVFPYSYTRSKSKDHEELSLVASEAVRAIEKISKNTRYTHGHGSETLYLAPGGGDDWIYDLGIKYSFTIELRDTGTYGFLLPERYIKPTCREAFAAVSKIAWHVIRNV
# Test: Inhibition of TAFIa (hippuryl-Arg test)
# Type: biochemical
# Settings: TAFIa 2 nM, hippuryl-arginine 5 mM, 45 minutes, relative to control containing the carrier; for inhibition at 0.01 µM: compound at 10 nM; for inhibition at 0.02 µM: compound at 20 nM
# Procedure: Human TAFI (4 nM) is incubated with human thrombin (10 nM) and human thrombomodulin (5 nM) in the presence of calcium (10 mM). After incubation for 20 minutes, the activation reaction is stopped by addition of PPACK (1 μM final), an irreversible thrombin inhibitor.
# The reactions take place in Hepes buffer (25 mM Hepes, 137 mM NaCl, 3.5 mM KCl)+0.1% bovine albumin, pH 7.4 at 28° C. and with stirring.
# The test compound is added to the solution of TAFIa (2 nM) and incubated for 45 minutes in the presence of hippuryl-arginine (5 mM). The reaction is stopped by addition of hydrochloric acid (1M) neutralised subsequently with sodium hydroxide (1M), and then the mixture is buffered with disodium hydroxyphosphate (1M pH 7.4). […] The reaction mixture is stirred (vortex) and then centrifuged. The supernatant is transferred to a 96-well microplate, and the absorbance is measured using a spectrophotometer at 405 nm (Spectramax plus, Molecular Devices).
# The OD value of a well containing the reagents without TAFI is subtracted from all the OD values measured. The percentage inhibition of TAFIa at a given concentration of the test compound is determined by means of the following formula: % inhibition=100−[(OD compound×100)/OD carrier]
# The compounds are evaluated at 10 nM and 20 nM under the experimental conditions described above and the results are expressed as the percentage inhibition relative to a control containing the carrier in the absence of compound.
SMILES,inhibition at 0.01 µM [%],inhibition at 0.02 µM [%]
"NCCCC[C@@]1(C(=O)O)CN(Cc2ccccc2-c2ccc3ccccc3c2)CCP1(=O)O [Example 209, (3S)-3-(4-AMINOBUTYL)-4-HYDROXY-1-[(2-NAPHTHALEN-2-YLPHENYL)-METHYL]-4-OXO-1,4-AZAPHOSPHINANE-3-CARBOXYLIC ACID]",76,87
"NCCCC[C@@]1(C(=O)O)CN(Cc2ccc(F)cc2-c2ccc(O)cc2)CCP1(=O)O [Example 211, (3S)-3-(4-AMINOBUTYL)-1-[[4-FLUORO-2-(4-HYDROXYPHENYL)PHENYL]-METHYL]-4-HYDROXY-4-OXO-1,4-AZAPHOSPHINANE-3-CARBOXYLIC ACID]",85,95
"Cn1cc(-c2cc(F)ccc2CN2CCP(=O)(O)[C@](CCCCN)(C(=O)O)C2)cn1 [Example 212, (3S)-3-(4-AMINOBUTYL)-1-[4-FLUORO-2-(1-METHYL-1H-PYRAZOL-4-YL)BENZYL]-4-HYDROXY-4-OXO-1,4-AZAPHOSPHINANE-3-CARBOXYLIC ACID]",62,86
"NCCCC[C@@]1(C(=O)O)CN(Cc2ccc(F)cc2-c2cccs2)CCP1(=O)O [Example 213, (3S)-3-(4-AMINOBUTYL)-1-[(4-FLUORO-2-THIOPHEN-2-YLPHENYL)METHYL]-4-HYDROXY-4-OXO-1,4-AZAPHOSPHINANE-3-CARBOXYLIC ACID]",83,92
"NCCCC[C@@]1(C(=O)O)CN(Cc2ccccc2-c2cccc3cnccc23)CCP1(=O)O [Example 214, (3S)-3-(4-AMINOBUTYL)-4-HYDROXY-1-[(2-ISOQUINOLIN-5-YLPHENYL)-METHYL]-4-OXO-1,4-AZAPHOSPHINANE-3-CARBOXYLIC ACID]",79,91
"NCCCC[C@@]1(C(=O)O)CN(Cc2ccc(F)cc2-c2ccc3ccccc3c2)CCP1(=O)O [Example 215, (3S)-3-(4-AMINOBUTYL)-1-[(4-FLUORO-2-NAPHTHALEN-2-YLPHENYL)METHYL]-4-HYDROXY-4-OXO-1,4-AZAPHOSPHINANE-3-CARBOXYLIC ACID]",82,91
"NCCCC[C@@]1(C(=O)O)CN(Cc2ccc(F)cc2-c2cc3ccccc3s2)CCP1(=O)O [Example 216, (3S)-3-(4-AMINOBUTYL)-1-[[2-(1-BENZOTHIOPHEN-2-YL)-4-FLUOROPHENYL]-METHYL]-4-HYDROXY-4-OXO-1,4-AZAPHOSPHINANE-3-CARBOXYLIC ACID]",71,85
"NCCCC[C@@]1(C(=O)O)CN(Cc2ccc(F)cc2-c2cnc3ccccn23)CCP1(=O)O [Example 220, (3S)-3-(4-AMINOBUTYL)-1-[(4-FLUORO-2-IMIDAZO[1,2-A]PYRIDIN-3-YLPHENYL)METHYL]-4-HYDROXY-4-OXO-1,4-AZAPHOSPHINANE-3-CARBOXYLIC ACID]",83,97
"COc1cc(-c2cc(F)ccc2CN2CCP(=O)(O)[C@](CCCCN)(C(=O)O)C2)ccn1 [Example 221, (3S)-3-(4-AMINOBUTYL)-1-[[4-FLUORO-2-(2-METHOXYPYRIDIN-4-YL)PHENYL]-METHYL]-4-HYDROXY-4-OXO-1,4-AZAPHOSPHINANE-3-CARBOXYLIC ACID]",75,88
"NCCCC[C@@]1(C(=O)O)CN(Cc2ccc(F)cc2-c2cccc(F)c2)CCP1(=O)O [Example 226, (3S)-3-(4-AMINOBUTYL)-1-[[4-FLUORO-2-(3-FLUOROPHENYL)PHENYL]METHYL]-4-HYDROXY-4-OXO-1,4-AZAPHOSPHINANE-3-CARBOXYLIC ACID]",71,88

# Other lines, results leading:
inhibition at 0.01 µM [%],inhibition at 0.02 µM [%],SMILES
70,86,"NCCCC[C@@]1(C(=O)O)CN(Cc2ccccc2-c2cc[nH]c(=O)c2)CCP1(=O)O [Example 204, (3S)-3-(4-AMINOBUTYL)-4-HYDROXY-4-OXO-1-[[2-(2-OXO-1H-PYRIDIN-4-YL)PHENYL]METHYL]-1,4-AZAPHOSPHINANE-3-CARBOXYLIC ACID]"
67,80,"NCCCC[C@@]1(C(=O)O)CN(Cc2ccc(F)cc2-c2ccccc2Cl)CCP1(=O)O [Example 206, (3S)-3-(4-AMINOBUTYL)-1-[[2-(2-CHLOROPHENYL)-4-FLUOROPHENYL]METHYL]-4-HYDROXY-4-OXO-1,4-AZAPHOSPHINANE-3-CARBOXYLIC ACID]"
71,85,"COc1cccc(-c2ccccc2CN2CCP(=O)(O)[C@](CCCCN)(C(=O)O)C2)c1OC [Example 207, (3S)-3-(4-AMINOBUTYL)-1-[[2-(2,3-DIMETHOXYPHENYL)PHENYL]METHYL]-4-HYDROXY-4-OXO-1,4-AZAPHOSPHINANE-3-CARBOXYLIC ACID]"
35,46,"CS(=O)(=O)c1ccccc1-c1ccccc1CN1CCP(=O)(O)[C@](CCCCN)(C(=O)O)C1 [Example 208, (3S)-3-(4-AMINOBUTYL)-4-HYDROXY-1-[[2-(2-METHYLSULPHONYLPHENYL)-PHENYL]METHYL]-4-OXO-1,4-AZAPHOSPHINANE-3-CARBOXYLIC ACID]"
71,79,"NCCCC[C@@]1(C(=O)O)CN(Cc2ccc(Cl)cc2-c2ccc(F)cc2)CCP1(=O)O [Example 210, (3S)-3-(4-AMINOBUTYL)-1-[[4-CHLORO-2-(4-FLUOROPHENYL)PHENYL]METHYL]-4-HYDROXY-4-OXO-1,4-AZAPHOSPHINANE-3-CARBOXYLIC ACID]"
66,83,"Cn1cncc1-c1cc(F)ccc1CN1CCP(=O)(O)[C@](CCCCN)(C(=O)O)C1 [Example 217, (3S)-3-(4-AMINOBUTYL)-1-[4-FLUORO-2-(1-METHYL-1H-IMIDAZOL-5-YL)BENZYL]-4-HYDROXY-4-OXO-1,4-AZAPHOSPHINANE-3-CARBOXYLIC ACID]"
67,83,"Cc1ccc(-c2cc(Cl)ccc2CN2CCP(=O)(O)[C@](CCCCN)(C(=O)O)C2)cc1 [Example 218, (3S)-3-(4-AMINOBUTYL)-1-[[4-CHLORO-2-(4-METHYLPHENYL)PHENYL]METHYL]-4-HYDROXY-4-OXO-1,4-AZAPHOSPHINANE-3-CARBOXYLIC ACID]"
92,98,"Cc1ncc(-c2cc(F)ccc2CN2CCP(=O)(O)[C@](CCCCN)(C(=O)O)C2)n1C [Example 219, (3S)-3-(4-AMINOBUTYL)-1-[2-(1,2-DIMETHYL-1H-IMIDAZOL-5-YL)-4-FLUOROBENZYL]-4-HYDROXY-4-OXO-1,4-AZAPHOSPHINANE-3-CARBOXYLIC ACID]"
73,85,"NCCCC[C@@]1(C(=O)O)CN(Cc2ccc(F)cc2-c2cc[nH]c(=O)c2)CCP1(=O)O [Example 222, (3S)-3-(4-AMINOBUTYL)-1-[[4-FLUORO-2-(2-OXO-1H-PYRIDIN-4-YL)PHENYL]-METHYL]-4-HYDROXY-4-OXO-1,4-AZAPHOSPHINANE-3-CARBOXYLIC ACID]"
71,83,"Cc1ccc(-c2cc(O)ccc2CN2CCP(=O)(O)[C@](CCCCN)(C(=O)O)C2)cc1 [Example 223, (3S)-3-(4-AMINOBUTYL)-4-HYDROXY-1-[[4-HYDROXY-2-(4-METHYLPHENYL)-PHENYL]METHYL]-4-OXO-1,4-AZAPHOSPHINANE-3-CARBOXYLIC ACID]"
86,93,"NCCCC[C@@]1(C(=O)O)CN(Cc2ccc(O)cc2-c2cnc3ccccn23)CCP1(=O)O [Example 224, (3S)-3-(4-AMINOBUTYL)-4-HYDROXY-1-[4-HYDROXY-2-(IMIDAZO[1,2-A]-PYRIDIN-3-YL)BENZYL]-4-OXO-1,4-AZAPHOSPHINANE-3-CARBOXYLIC ACID]"
76,85,"NCCCC[C@@]1(C(=O)O)CN(Cc2ccc(O)cc2-c2ccncc2)CCP1(=O)O [Example 225, (3S)-3-(4-AMINOBUTYL)-4-HYDROXY-1-[(4-HYDROXY-2-PYRIDIN-4-YLPHENYL)METHYL]-4-OXO-1,4-AZAPHOSPHINANE-3-CARBOXYLIC ACID]"
84,91,"NCCCC[C@@]1(C(=O)O)CN(Cc2ccc(O)cc2-c2cccs2)CCP1(=O)O [Example 227, (3S)-3-(4-AMINOBUTYL)-4-HYDROXY-1-[(4-HYDROXY-2-THIOPHEN-2-YLPHENYL)METHYL]-4-OXO-1,4-AZAPHOSPHINANE-3-CARBOXYLIC ACID]"
63,82,"NCCCC[C@@]1(C(=O)O)CN(Cc2ccc(O)cc2-c2ccc(F)cc2)CCP1(=O)O [Example 228, (3S)-3-(4-AMINOBUTYL)-1-[[2-(4-FLUOROPHENYL)-4-HYDROXYPHENYL]-METHYL]-4-HYDROXY-4-OXO-1,4-AZAPHOSPHINANE-3-CARBOXYLIC ACID]"

# Source: US10138260B2, “Compounds of phosphinanes and azaphosphinanes, a process for their preparation and pharmaceutical compositions containing them” (LES LABORATOIRES SERVIER, priority 2016, dated 2018)
